According to patent publication US20120108500A1, “Compositions and Methods for Modulating Immunodeficiency Virus Transcription” (priority 2010, published 2012):

How the values were obtained:
J-Lat A2 cells = assay: Cell viability of J-Lat A2 cells (propidium iodide-negative cells, flow cytometry); settings: at the tested concentrations
Procedure: (§1) FIGS. 7A and 7B. LSD1/KDM1 is a potential drug target in HIV transcription. (A) J-Lat A2 cells were stimulated with 0.08 ng/ml of TNFα in the presence of increasing amounts of phenelzine (100, 300, 1000 or 3000 μM), DRB (0.3, 1, 3 or 10 μM) or dimethylsulfoxide (DMSO) as carrier control overnight. Numbers of GFP+ cells as well as propidium iodide (PI)-negative cells as a measure of intact cell viability were analyzed by flow cytometry. The percentage compared to DMSO-treated control cells was calculated. The average of two independent experiments is shown. (B) Purified resting primary CD4+ T cells were infected at a high multiplicity of infection (M.O.I.) with infectious HIV-NL4-3 luciferase reporter virus. Three days after infection, cells were stimulated with α-CD3 and α-CD28 antibodies in the presence of phenelzine (100, 300, or 1000 μM), DRB (1 or 10 μM) or DMSO overnight followed by analysis for luciferase activity and PI uptake.

[1] = tested on: HIV-1 NL4-3 luciferase reporter virus in primary CD4+ T cells
Procedure: as §1

primary CD4+ T cells = tested on: primary CD4+ T cells
Procedure: as §1

[2] = tested on: HIV transcription in J-Lat A2 cells; assay: cells; assay type: cell-based; settings: for effect on TNFα-mediated activation of gene expression: phenelzine 100-3000 μM, DRB 0.3-10 μM
Procedure: Culhane et al. (2010) J Am Chem Soc 132: 3164-3176. To test the activity of this agent in HIV infection, J-Lat A2 cells were treated with increasing amounts of phenelzine or the CDK inhibitor 5,6-dichloro-1-β-D-ribofuranosyl-1H-benzimidazole (DRB), a known Tat inhibitor.
as §1

[3] = biological target: C-terminal FLAG tagged Tat protein (Tat/FLAG), expressed in cells (HIV) (UniProt P04608); assay: cell-based or functional assay
[4] = biological target: synthetic Tat protein (aa 1-72), K51 monomethylated (UniProt P04608)
[5] = tested on: histone H3 dimethylated at lysine 4 (in purified total cellular histones)

Molecule: NNCCc1ccccc1 (racemic) [phenelzine, (±)-2-phenylethylhydrazine]
- cell toxicity (PI-negative cells) (J-Lat A2 cells): No cell toxicity was observed
- basal expression of luciferase ([1]; nonactivated primary T cells): suppressed the basal expression of luciferase in nonactivated cells
- activation of luciferase expression ([1]; primary CD4+ T cells of two donors, α-CD3/α-CD28 stimulation, phenelzine 100-1000 μM): successfully suppressed
- suppression of HIV gene expression compared with DRB ([1]; primary T cells): more efficient in suppressing HIV gene expression than DRB
- cell viability (PI uptake) (primary CD4+ T cells): slight decrease in cell viability was observed in one donor
- IC50 ([2]; Human immunodeficiency virus 1, J-Lat A2, read-out: IC50, prevention of TNFα-mediated activation of gene expression (GFP+ cells)): 300 µM
- concentrations needed relative to DRB ([2]; J-Lat A2 cells, TNFα-stimulated): ~150 fold
- effect on TNFα-mediated activation of gene expression ([2]; J-Lat A2 cells): prevented TNFα-mediated activation of gene expression in a dose-dependent manner

Molecule: OC[C@H]1O[C@@H](n2cnc3cc(Cl)c(Cl)cc32)[C@H](O)[C@@H]1O [DRB, 5,6-dichloro-1-β-D-ribofuranosyl-1H-benzimidazole]
- cell toxicity (PI-negative cells) (J-Lat A2 cells): No cell toxicity was observed
- effect on TNFα-mediated activation of gene expression ([2]; J-Lat A2 cells): prevented TNFα-mediated activation of gene expression in a dose-dependent manner

Molecule: endogenous LSD1/KDM1 (lysine-specific demethylase-1) in cells (from UniProt O60341 1-852) (enzyme)
- decrease in Tat transactivation of the HIV LTR luciferase reporter in HeLa cells after LSD1/KDM1 siRNA [3]: 50%

Molecule: recombinant LSD1/KDM1 (His-tagged, prokaryotic expression)
- in vitro demethylation, western blot with α-Me1K51 Tat antibodies [4]: Recombinant LSD1/KDM1 demethylated synthetic monomethylated Tat in a dose-dependent manner
- in vitro demethylation of purified histones, western blot with α-Me2H3K4 [5]: LSD1/KDM1 also demethylated its cognate substrate, dimethyl lysine 4 in histone H3, as expected
